Experimental data: patent US11701363B2, “Methods for treating viral disorders” (TRUSTEES OF BOSTON UNIVERSITY, priority 2009, dated 2023)
Like-named read-outs stand apart in the source and are kept apart here.

Experiments:
HIV-1 = settings: OD converted to pg of protein; compared with vehicle alone
Experimental: Virus production (p24 release) was examined in an HIV-1-infected monocyte line. Cells were treated or not treated with HDAC-inhibitors and other compounds. P24 release expressed as optical density (“OD”) (FIG. 13), and then converted to pg of protein (FIG. 14). […] DMSO was vehicle for some of the compounds tested.

P3HR1 cells = assay: Viable cell counts of P3HR1 cells (toxicity assays and combination treatment with GCV)
Experimental: The EBV-positive B lymphoma cell line P3HR1 was used throughout these assays. The P3HR1 cell line was originally derived from Burkitt's lymphoma patient. EBV maintains a latent state of replication in this cell line. Cells were maintained in RPMI 1640 with 10% fetal bovine serum containing 100 U penicillin per ml and 100 μg streptomycin per ml. The HDAC inhibitors used were from five different classes: a) short chain fatty acids, b) hydroxamic acids, c) benzamides, d) cyclic tetrapeptides, and e) largazoles.
Toxicity assays with two anti-herpesvirus drugs, Gancicovir (GCV) and Penciclovir (PCV), treated to P3HR1 cells alone was conducted as a control. A total of 3×10^5 P3HR1 cells were incubated with various concentrations of GCV or PCV and incubated for 6 days. Viable cell counts were measured and toxicity was expressed as percentage of cell growth compared to untreated cells.

EBV TK = assay: TK mRNA level by reverse transcription and real-time PCR in P3HR1 cells; format: cell-based, Epstein-Barr virus
Experimental: To measure the relative level of TK mRNA in various total RNA preparations, reverse transcription and quantitative PCR using real time PCR technology was used. Five micrograms of total RNA was reverse-transcribed using random hexamer primers and Superscript III cDNA synthesis kit (Invitrogen). The cDNA was diluted to a final volume of 60 μl with sterile water, 8 μl of which was then used in each real time PCR reaction in an ABI 7500 […] using SYBR-Green technology. Primers used for the amplification of TK were EBV-TK1-F: 5′-[…]-3′; EBV-TK1-R: 5′-[…]-3′. The ß-actin mRNA level in those samples were determined similarly using ß-actin-specific primers Actin/hu-F: 5′-[…]-3′; Actin/hu-R: 5′-[…]-3′. The relative level of TK expression in a sample was calculated following normalization of ß-actin expression level.

EBV-TK = assay: Induction of EBV-TK activity in EBV-immortalized B-cells and patient-derived tumor cells; format: cell-based, Epstein-Barr virus; settings: preliminary in vitro studies
Text: In some embodiments, inducing agents include arginine butyrate and/or other histone deacetylase inhibitors. […] TK expression can be used as a point for attack by anti-viral agents, allowing for treatment of latent infections.
Treatment of patients with viral-associated tumors such as EBV with inducing agents such as arginine butyrate, to induce the expression of EBV-TK, and GCV, to eliminate EBV-TK expressing tumor cells, is an effective, non-toxic therapy. […] Without wishing to be bound by theory, it is believed that just the presence of the EBV genome in latent form would make the tumor susceptible to this combination protocol.

viral thymidine kinase = assay: Expression of viral thymidine kinase in EBV-infected lymphocytes; format: cell-based
Text: Three such examples are as follows. First, many of the RNA viruses such as HIV and other retroviruses require a reverse transcriptase to transcribe their genome into DNA. A few of the agents that induce expression or activity of retroviruses and their encoded genes, such as, for example, reverse transcriptase, are known to those of ordinary skill in the art. Anti-viral agents such as nucleoside analogs can be administered to the patient. Those substrate analogs will be specifically recognized by the reverse transcriptase that, when incorporated into the infected-cell genome, prevent viral replication and may also result in cell death. Second, many viruses require an active protease to assemble virus capsids to be packaged with viral genome. Protease inhibitors or proteases that alter cleavage patterns so that packaging cannot occur can be specifically targeted with an anti-viral agent that comprises an amino acid analog or toxic conjugate. […] Ganciclovir or famcyclovir, in the presence of the viral thymidine kinase or other viral kinases, destroys the infected cell. Treatment of infected cells with both agents, according to the invention, will selectively destroy EBV virus-infected cells. In another aspect, of infected cells with both agents, according to the invention, will selectively disable or disrupt the viral activity within the cells in vivo.

In the case of `CCCCCCCCCCCCCC(=O)O[C@@H]1[C@@H](C)[C@@]2(O)[C@@H](C=C(CO)C[C@]3(O)C(=O)C(C)=C[C@@H]23)[C@@H]2C(C)(C)[C@]12OC(C)=O` [PMA, phorbol myristate acetate], the “virus production (p24 release)” value (HIV-1) is reported as “active”.
In the case of Oxamflatin, the “reduction of cell growth in combination treatment with GCV” value (“reduction of cell growth … with GCV” for short) (P3HR1 cells) is reported as “synergistic activity with GCV” and the “activity level (growth suppression) in combination with GCV” value (P3HR1 cells; 200 nM) is reported as “more than what typically seen with 1.0 mM NaB”.
For `CCC(Nc1ncnc2ccccc12)C(=O)O` (centres unmarked) [RB3], the “virus production (p24 release)” value (HIV-1) was “increased viral production at levels similar to the control of vehicle alone”.
`Cc1[nH]c2ccccc2c1CCNCc1ccc(/C=C/C(=O)NO)cc1` [LHB589, panobinostat] was tested, and the “virus production (p24 release)” value (HIV-1) was “active”.
In the case of `CCCC(CCC)C(=O)O` [VA, valproic acid], the “reduction of cell growth … with GCV” value (P3HR1 cells) is reported as “very similar activity” and the “TK expression (TK mRNA level)” value (EBV TK) is reported as “less efficient than NaB”.
In the case of `CCCC(=O)[O-].[Na+]` [NaB, Na-butyrate], the “optimal concentration for combination treatment with GCV” value (P3HR1 cells) is reported as 1.0 mM, the “cell growth with inducing agent alone” value (P3HR1 cells; NaB alone at a concentration higher than 1.0 mM) is reported as “reduces cell growth to a significant degree” and the “synergistic effects of GCV” value (P3HR1 cells; NaB at concentrations higher than 1.0 mM) is reported as “lost”.
In the case of `Nc1ccccc1NC(=O)c1ccc(CNC(=O)OCc2cccnc2)cc1` [MS-275, 3-pyridinylmethyl [[4-[[(2-aminophenyl)amino]carbonyl]phenyl]methyl] carbamate], the “sensitizing P3HR1 cells to GCV-mediated effects” value (P3HR1 cells; 500 nM) is reported as “as efficient as 1.0 mM NaB”, the “sensitizing P3HR1 cells to GCV-mediated killing after short exposure” value (P3HR1 cells; 24 hr exposure to MS-275+GCV, then GCV for up to 6 days) is reported as “sensitized the cells to GCV-mediated effects as efficiently as a 72 hr continuous treatment” and the TK expression (EBV TK; 500 nM and higher concentrations) is reported as “strongly induced TK expression”. The TK expression (EBV TK; 6 hr post treatment) was “induced”.
For `O=C(CCCCCCC(=O)Nc1ccccc1)NO` [SAHA, suberoyl anilide hydroxamic acid], the “reduction of cell growth … with GCV” value (P3HR1 cells) was “less effective in reducing cell growth when combined with an antiviral agent compared to butyrate” and the “TK expression (TK mRNA level)” value (EBV TK) was “higher level than that seen with efficient concentrations of butyrate (1.0 mM)”.
With arginine butyrate the EBV-TK activity (EBV-TK) was “induces EBV-TK activity”, the “virus production (p24 release)” value (HIV-1) was “active” and the “expression of viral thymidine kinase and other viral protein kinases” value (viral thymidine kinase) was “enhance expression”.
For `CC(C)C(N)=O` [isobutyramide], the “expression of viral thymidine kinase and other viral protein kinases” value (viral thymidine kinase) was “enhance expression”.
With `CCC(=O)CCCCC[C@@H]1NC(=O)[C@H]2CCCCN2C(=O)[C@H]([C@@H](C)CC)NC(=O)[C@H](Cc2cn(OC)c3ccccc23)NC1=O` [apicidin] the “cell growth without any GCV” value (P3HR1 cells; 200 nM) was “significantly retarded”, the “toxicity to the cells” value (P3HR1 cells; 500 nM) was “very toxic to the cells” and the “toxicity to the cells” value (P3HR1 cells; apicidin alone, concentrations higher than 200 nM) was “quite toxic to the cells”. The “reduction of cell growth over cells treated with apicidin alone” value (P3HR1 cells; combination with GCV, 100 nM and 200 nM) was 40-50% and the “virus production (p24 release)” value (HIV-1) was “active”.
For `CCC(C)(C)C(=O)O` [ST20, 2,2-dimethyl butyrate], the “virus production (p24 release)” value (HIV-1) was “increased viral production at levels similar to the control of vehicle alone”.
With `O=C(/C=C/c1cccc(S(=O)(=O)Nc2ccccc2)c1)NO` [PXD101, Belinostat] the TK expression (EBV TK; 5 μM) was “high level of TK expression”.
In the case of `CC(/C=C/C(=O)NO)=C\[C@@H](C)C(=O)c1ccc(N(C)C)cc1` [TSA, trichostatin A], the “virus production (p24 release)” value (HIV-1) is reported as “active”.
In the case of `O=C(CCCCCN1C(=O)c2cccc3cccc(c23)C1=O)NO` [Scriptaid], the “reduction of cell growth … with GCV” value (P3HR1 cells; especially at 500 nM and 1 μM) is reported as “strong synergistic effect with GCV”.
For `Nc1nc2c(ncn2CCC(CO)CO)c(=O)[nH]1` [PCV, Penciclovir], the “toxicity to P3HR1 cells (percentage of cell growth compared to untreated cells)” value (P3HR1 cells) was “less toxic to the cells compared to GCV” and the “level of inhibition of cell growth at higher concentrations” value (P3HR1 cells; in combination with Na-butyrate, concentrations higher than 40 μM) was “did not change significantly”.
In the case of `CCCCCCCC(=O)SCC/C=C/[C@@H]1CC(=O)NCc2nc(cs2)C2=N[C@@](C)(CS2)C(=O)N[C@@H](C(C)C)C(=O)O1` [largazole], the “virus production (p24 release)” value (HIV-1) is reported as “active”.
